Measurements: patent US4540700A, “Treatment of diabetic complications with certain spiro-imidazolidine-diones” (Alcon Laboratories, Inc., priority 1984, dated 1985)

Tested on: cataract formation in galactocemic rats
Experiment: in vivo dose response by intubation (per oral) in galactocemic rats, cataract (vacuole) formation
Design: species or system Charles River CD (Sprague-Dawley derived) male rats
Details: for Relative Potency (antilog) / log relative potency for eyes with vacuoles or more advanced cataracts: observation day 12, 95% confidence limits
Experimental: B. In vivo dose response studies were conducted to test the in vivo activity of the following compounds by intubation (per oral) in galactocemic rats on a 30% galactose diet previously described:
Stock suspensions of the test compounds and all dilutions of the compound were formulated with 0.03% by weight Tween 80.
Healthy, Charles River CD (outbred albino, Sprague-Dawley derived) male rats, aged 20-30 days, without observable ocular defects and ranging in weight from 35-45 grams, were acclimated to experimental conditions (in quarantine) for two days prior to beginning the study.
Rats were individually assigned to one of twenty-three groups according to a random number schedule. Two rats, belonging to the same drug-diet treatment group, were housed per cage. Treatment and control groups consisted of six (6) rats each with no replacement in the event of death, and were designated as follows:
Lenses of all eyes were examined with a hand-held ophthalmoscope in the early stages of cataract development and a penlight for the stages, snowflake-like, snowflake, and nuclear cataract. Lens grading occurred every day for the first ten study days, and then every other day until study Day 14.
The relative potency determination was made at 7 drug levels over half log dose intervals. The response (percent cataracts formed and/or the time to cataract formation) was plotted against mg/kg and/or moles/kg.
The study was directed to the suppression and/or elimination of the initial stages of cataract development characterized by vacuoles or snowflake-likeopacities only. It was assumed therefore that suppression and/or elimination of vacuoles or lens opacification by the test drugs affects the transport, absorption and/or metabolism of galactose in such a manner as to prevent subsequent osmotic disturbances normally leading to tissue degeneration and advanced cataract. Advanced cataract defined as stages 2-4 of the Sipple classification was assumed to be of secondary importance to the etiology of cataract inhibition.
In the event where cataract stage other than vacuole formed, such as snowflake-like opacities, this cataract was counted similarly as vacuole in percent cataract formation.
This study yielded this expected effect in the control groups.
All animals were fed Purina Laboratory Chow and water, ad libitum, for the two day acclimation period. All drugs were dosed orally by intubation using an animal feeding needle (Popper and Sons), 18 or 20 gauge, attached to a 1 or 3 ml syringe. Once the dosing time schedule was established, the schedule was followed throughout the study to compensate for any diurnal variation.
The animals were kept on a twelve hour day/night cycle. The temperature and humidity were determined each day at the scheduled dosing time of 1:00 p.m.
The animals were weighed every other day and adjustments to dosage amounts to compensate for weight gain were made each day prior to the dose time. All food was routinely withheld from all animal groups for four hours (9:00 a.m.) prior to the drug dose and restored two hours (3:00 p.m.) post-dose. Otherwise sufficient amounts of chow or diet mixture were maintained in the food hopper to allow the animals to eat ad libitum. There were two days of drug dosage with the animals remaining on Purina Laboratory Chow (Days 1 and 2). The 30% galactose diet mixture was introduced to the animals two hours post-dose on Day 3 which constituted Day 1 of the study.
All eyes were examined with a hand-held ophthalmoscope and/or penlight at the times designated in the Experimental Design section.
It has been found in previous studies that dilation of the eye with a mydriactic (i.e. Mydriacyl) is not necessary for accurate grading, due to the semi-transparent nature of the rat iris. In the early stages (i.e., grades -, ±, and +) the lens was observed by reflecting the ophthalmoscope beam off the retina back through the lens and iris. Using this technique, vacuoles appear as dark, almost opaque patches. […]

For `O=C1NC(=O)C2(N1)c1cc(F)ccc1-c1ccc(F)cc12` [M, Spiro-[2,7-difluorofluoren-9,4'-imidazolidine]-2',5'-dione], the “Percent of Rat Eyes With at Least Vacuoles Formed” value (shortened to “Percent”) (0.126 mg/kg p.o., Day 0) was 0%, the “Percent” value (0.126 mg/kg p.o., Day 1) was 0% and the “Percent” value (0.126 mg/kg p.o., Day 2) was 0%. For the same compound, the “Percent” value (0.126 mg/kg p.o., Day 3) was 0%, the “Percent” value (0.126 mg/kg p.o., Day 4) was 0% and the “Percent” value (0.126 mg/kg p.o., Day 5) was 0%. The “Percent” value (0.126 mg/kg p.o., Day 6) was 8%, the “Percent” value (0.126 mg/kg p.o., Day 7) was 25% and the “Percent” value (0.126 mg/kg p.o., Day 8) was 67%. For the same compound, the “Percent” value (0.126 mg/kg p.o., Day 9) was 67%, the “Percent” value (0.126 mg/kg p.o., Day 10) was 67% and the “Percent” value (0.126 mg/kg p.o., Day 12) was 67%. For the same compound, the “Percent” value (0.126 mg/kg p.o., Day 14) was 75%, the “Percent” value (0.4 mg/kg p.o., Day 0) was 0% and the “Percent” value (0.4 mg/kg p.o., Day 1) was 0%. For the same compound, the “Percent” value (0.4 mg/kg p.o., Day 2) was 0%, the “Percent” value (0.4 mg/kg p.o., Day 3) was 0% and the “Percent” value (0.4 mg/kg p.o., Day 4) was 0%. The “Percent” value (0.4 mg/kg p.o., Day 5) was 0%, the “Percent” value (0.4 mg/kg p.o., Day 6) was 0% and the “Percent” value (0.4 mg/kg p.o., Day 7) was 0%. For the same compound, the “Percent” value (0.4 mg/kg p.o., Day 8) was 0%, the “Percent” value (0.4 mg/kg p.o., Day 9) was 0% and the “Percent” value (0.4 mg/kg p.o., Day 10) was 0%. The “Percent” value (0.4 mg/kg p.o., Day 12) was 0%, the “Percent” value (0.4 mg/kg p.o., Day 14) was 0% and the “Percent” value (1.26 mg/kg p.o., Day 0) was 0%. For the same compound, the “Percent” value (1.26 mg/kg p.o., Day 1) was 0%, the “Percent” value (1.26 mg/kg p.o., Day 2) was 0% and the “Percent” value (1.26 mg/kg p.o., Day 3) was 0%. The “Percent” value (1.26 mg/kg p.o., Day 4) was 0%, the “Percent” value (1.26 mg/kg p.o., Day 5) was 0% and the “Percent” value (1.26 mg/kg p.o., Day 6) was 0.0%. The “Percent” value (1.26 mg/kg p.o., Day 6, listed as 2,7-difluoro) was 0%, the “Percent” value (1.26 mg/kg p.o., Day 7) was 0% and the “Percent” value (1.26 mg/kg p.o., Day 8) was 0%. The “Percent” value (1.26 mg/kg p.o., Day 9) was 0%, the “Percent” value (1.26 mg/kg p.o., Day 10) was 0% and the “Percent” value (1.26 mg/kg p.o., Day 12) was 0%. For the same compound, the “Percent” value (1.26 mg/kg p.o., Day 14) was 0%, the “Percent” value (4.0 mg/kg p.o., Day 0) was 0% and the “Percent” value (4.0 mg/kg p.o., Day 1) was 0%. For the same compound, the “Percent” value (4.0 mg/kg p.o., Day 2) was 0%, the “Percent” value (4.0 mg/kg p.o., Day 3) was 0% and the “Percent” value (4.0 mg/kg p.o., Day 4) was 0%. For the same compound, the “Percent” value (4.0 mg/kg p.o., Day 5) was 0%, the “Percent” value (4.0 mg/kg p.o., Day 6) was 0.0% and the “Percent” value (4.0 mg/kg p.o., Day 6, listed as 2,7-difluoro) was 0%. For the same compound, the “Percent” value (4.0 mg/kg p.o., Day 7) was 0.0%, the “Percent” value (4.0 mg/kg p.o., Day 7, listed as 2,7-difluoro) was 0% and the “Percent” value (4.0 mg/kg p.o., Day 8) was 0.0%. The “Percent” value (4.0 mg/kg p.o., Day 8, listed as 2,7-difluoro) was 0%, the “Percent” value (4.0 mg/kg p.o., Day 9) was 0.0% and the “Percent” value (4.0 mg/kg p.o., Day 9, listed as 2,7-difluoro) was 0%. For the same compound, the “Percent” value (4.0 mg/kg p.o., Day 10) was 0.0%, the “Percent” value (4.0 mg/kg p.o., Day 10, listed as 2,7-difluoro) was 0% and the “Percent” value (4.0 mg/kg p.o., Day 12) was 0.0%. For the same compound, the “Percent” value (4.0 mg/kg p.o., Day 12, listed as 2,7-difluoro) was 0%, the “Percent” value (4.0 mg/kg p.o., Day 14) was 0.0% and the “Percent” value (4.0 mg/kg p.o., Day 14, listed as 2,7-difluoro) was 0%. The “Percent” value (12.6 mg/kg p.o., Day 0) was 0%, the “Percent” value (12.6 mg/kg p.o., Day 1) was 0% and the “Percent” value (12.6 mg/kg p.o., Day 2) was 0%. For the same compound, the “Percent” value (12.6 mg/kg p.o., Day 3) was 0%, the “Percent” value (12.6 mg/kg p.o., Day 4) was 0% and the “Percent” value (12.6 mg/kg p.o., Day 5) was 0%. The “Percent” value (12.6 mg/kg p.o., Day 6) was 0.0%, the “Percent” value (12.6 mg/kg p.o., Day 6, listed as 2,7-difluoro) was 0% and the “Percent” value (12.6 mg/kg p.o., Day 7) was 0.0%. For the same compound, the “Percent” value (12.6 mg/kg p.o., Day 7, listed as 2,7-difluoro) was 0%, the “Percent” value (12.6 mg/kg p.o., Day 8) was 0.0% and the “Percent” value (12.6 mg/kg p.o., Day 8, listed as 2,7-difluoro) was 0%. The “Percent” value (12.6 mg/kg p.o., Day 9) was 0.0%, the “Percent” value (12.6 mg/kg p.o., Day 9, listed as 2,7-difluoro) was 0% and the “Percent” value (12.6 mg/kg p.o., Day 10) was 0.0%. For the same compound, the “Percent” value (12.6 mg/kg p.o., Day 10, listed as 2,7-difluoro) was 0%, the “Percent” value (12.6 mg/kg p.o., Day 12) was 0.0% and the “Percent” value (12.6 mg/kg p.o., Day 12, listed as 2,7-difluoro) was 0%. The “Percent” value (12.6 mg/kg p.o., Day 14) was 0.0%, the “Percent” value (12.6 mg/kg p.o., Day 14, listed as 2,7-difluoro) was 0% and the “Percent” value (40 mg/kg p.o., Day 0) was 0%. For the same compound, the “Percent” value (40 mg/kg p.o., Day 1) was 0%, the “Percent” value (40 mg/kg p.o., Day 2) was 0% and the “Percent” value (40 mg/kg p.o., Day 3) was 0%. For the same compound, the “Percent” value (40 mg/kg p.o., Day 4) was 0%, the “Percent” value (40 mg/kg p.o., Day 5) was 0% and the “Percent” value (40 mg/kg p.o., Day 6) was 0.0%. The “Percent” value (40 mg/kg p.o., Day 6, listed as 2,7-difluoro) was 0%, the “Percent” value (40 mg/kg p.o., Day 7) was 0.0% and the “Percent” value (40 mg/kg p.o., Day 7, listed as 2,7-difluoro) was 0%. For the same compound, the “Percent” value (40 mg/kg p.o., Day 8) was 0.0%, the “Percent” value (40 mg/kg p.o., Day 8, listed as 2,7-difluoro) was 0% and the “Percent” value (40 mg/kg p.o., Day 9) was 0.0%. The “Percent” value (40 mg/kg p.o., Day 9, listed as 2,7-difluoro) was 0%, the “Percent” value (40 mg/kg p.o., Day 10) was 0.0% and the “Percent” value (40 mg/kg p.o., Day 10, listed as 2,7-difluoro) was 0%. The “Percent” value (40 mg/kg p.o., Day 12) was 0.0%, the “Percent” value (40 mg/kg p.o., Day 12, listed as 2,7-difluoro) was 0% and the “Percent” value (40 mg/kg p.o., Day 14) was 0.0%. For the same compound, the “Percent” value (40 mg/kg p.o., Day 14, listed as 2,7-difluoro) was 0%, the “activity in vivo relative to the Sarges compound” value (rat studies) was “unexpectedly and significantly more active” and the “Relative Potency (antilog)” value (relative to 2-fluoro (L)) was 2.80. For the same compound, the “log relative potency for eyes with vacuoles or more advanced cataracts” value (relative to 2-fluoro (L)) was 0.4473, the “Relative Potency (antilog)” value (relative to Sarges Racemic) was 12.92 and the “log relative potency for eyes with vacuoles or more advanced cataracts” value (relative to Sarges Racemic) was 1.1114.
